Measurements taken from patent publication US5681820A, “Guanidinoalkyl glycine β-amino acids useful for inhibiting tumor metastasis” (G. D. Searle & Co., priority 1995, dated 1997).
Where a name gives a salt, the structure may show the parent alone.

Key:
[1] = target: T1, human vitronectin receptor (αv β3) (Homo sapiens, UniProt P05106+P06756); test: Solid Phase Receptor Assay: purified vitronectin receptor (αv β3), competition with biotinylated vitronectin; format: binding; details: 1 nM biotinylated vitronectin, read-out: VnR/IC50
T1 construct: Human vitronectin receptor(αv β3) was purified from human placenta; from tissue; host or cells: human placenta
Protocol: Human vitronectin receptor(αv β3) was purified from human placenta as previously described [Pytela et al., Methods in Enzymology, 144:475-489 (1987)]. Human vitronectin was purified from fresh frozen plasma as previously described [Yatohgo et al., Cell Structure and Function, 13:281-292 (1988)]. Biotinylated human vitronectin was prepared by coupling NHS-biotin from Pierce Chemical Company (Rockford, Ill.) to purified vitronectin as previously described [Charo et al., J. Biol. Chem., 266(3):1415-1421 (1991)]. Assay buffer, OPD substrate tablets, and RIA grade BSA were obtained from Sigma (St. Louis, Mo.). Anti-biotin antibody was obtained from Calbiochem (La Jolla, Calif.). GRGDSP peptide was purchased from Bachem (Torrance, Calif.). Linbro microtiter plates were obtained from Flow Labs (McLean, Va.). ADP reagent was obtained from Sigma (St. Louis, Mo.).
Solid Phase Receptor Assays
This assay was essentially the same as previously reported [Niiya et al., Blood, 70:475-483 (1987)]. […] The plate was read with a microtiter plate reader at a wavelength of 450 nm and when the maximum-binding control wells reached an absorbance of about 1.0, the final A450 were recorded for analysis. The data were analyzed using a macro written for use with the EXCEL™ spreadsheet program. The mean, standard deviation, and %CV were determined for duplicate concentrations. […]

[2] = tested on: M21 human melanoma cells (αv β3-dependent adhesion); test: M21 Melanoma Cell Adhesion Assay: αv β3-dependent adhesion to human fibrinogen; format: cell-based; details: 0.5 h, 200 μM Mn++, 30 minutes, 37° C.
Protocol: M21 Melanoma Cell Adhesion Assasy
This assay involves an αv β3 -dependent adhesion of M21 human melanoma cells to human fibrinogen-coated plastic tissue culture dishes.
Fibrinogen was purified from human plasma. Fibronectin and plasminogen were eliminated from the preparation by passing the sample over gelatin-sepharose 4B and lysine-sepharose 4B resins, respectively. The fibrinogen is diluted to 10 μg/mL in coating buffer (20 mM Tris-HCl, 150 mM NaCl, pH 7.4). 100 μL of diluted fibrinogen is added to each well of a 96-well Immulon 2 microtiter plate (Dynatech; Chantilly, Va.) and allowed to coat overnight at 4° C. […]
M21 human melanoma cells were provided by Dr. J. Smith, La Jolla Cancer Research Institute. […] Cells are counted and suspended to a density of 2×10^6 /mL in adhesion assay buffer containing 200 μM Mn^++. […]
Following adhesion, plates are gently washed 3 times with 200 μL of wash buffer (50 mM Tris-HCl, 150 mM NaCl, pH 7.4) using large bore pipet tips. Plates are briefly blotted dry and 100 μL of cell lysis buffer (50 mM sodium acetate, pH 5.0, 0.5% Triton X-100, 0.3 mg/mL p-nitrophenyl phosphate [Sigma] is added to each well. Plates are incubated for 60 minutes at 37° C. and 50 μL of 1N NaOH is added to stop the reaction. The absorbance of the wells at […] is read using an automatic plate reader.

A3827 cells = test: Cell Adhesion Assay: adhesion of A3827 cells to fibrinogen; format: cell-based; details: 300 μM MnCl2, 1 hour, 37° C.
Protocol: Fibrinogen was purified from human plasma. Fibronectin and plasminogen were eliminated from the preparation by passing the sample over gelatin-sepharose 4B and lysine-sepharose 4B resins, respectively. The fibrinogen was resuspended at a concentration of 10 μg/mL in 100 mM sodium bicarbonate, pH 9.0. Immulon II (Nunc) microtiter plates were coated by incubating with 100 μL/well of fibrinogen solution overnight at 4° C. After coating with fibrinogen, plates were rinsed three times with phosphate buffered saline (PBS) and 100 μL of a 1% bovine serum albumin (BSA) solution was added to each well and stored at -20° C. until needed. A3827 cells were harvested from subconfluent 75 cm^2 culture flasks with 2 mM EDTA in PBS and resuspended at 5×10^5 cells/mL in Dulbecco's PBS without calcium or magnesium (Sigma #5652) containing 1% BSA. MnCl2 was added to a final concentration of 300 μM. Test compounds were resuspended in PBS and added to the cell suspension before serial dilution. […] Adherent cells were quantitated using a non-radioactive cell proliferation assay (Promega #G5430) using the instructions provided by the supplier. Plates were allowed to equilibrate overnight at room temperature in a humidified chamber and a Biotek EL312 microplate spectrophotometer was used to measure the difference in absorbance at […]. […]

SMILES	IC50 [1] [nM]	IC50 [2] [nM]	IC50 (A3827 cells) [nM]
CCOC(=O)CC(NC(=O)CNC(=O)CCCNC(=N)N)c1cccnc1 (racemic) [Example 3-ethyl ester, (±) ethyl β-[[2-[[4-[(aminoiminomethyl)amino]-1-oxobutyl]amino]-1-oxoethyl]amino]-3-pyridinepropanoate]	987	1410	–
N=C(N)NCCCCC(=O)NCC(=O)NC(CC(=O)O)c1cccnc1 (stereo not drawn) [Example 1, β-[[2-[[5-[(aminoiminomethyl)amino]-1-oxopentyl]amino]-1-oxoethyl]amino]-3-pyridinepropanoic acid, bistrifluoroacetate salt]	–	40.4	30
N=C(N)NCCCCC(=O)N1CCC[C@H]1C(=O)N[C@@H](CC(=O)O)c1cccnc1 [Example 2, βS-[[[1-[5-[(aminoiminomethyl)amino]-1-oxopentyl]pyrrolidin-2-yl]carbonyl]amino-3-pyridinepropanoic acid, bistrifluoroacetate salt]	142	–	–
